Measurements reported in patent US20240208992A1, “MACROCYCLES AS CFTR MODULATORS” (Idorsia Pharmaceuticals Ltd, priority 2021, published 2024).

Biological target: human F508del-CFTR (Homo sapiens, UniProt P13569, DEL508-508)
Test: F508del-CFTR cell surface expression (corrector activity), DiscoveRx ß-galactosidase complementation chemiluminescence assay in recombinant U2OS cell line;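 also: U2OS cells co-expressing ProLink-tagged F508del-CFTR and a membrane-anchored enzyme acceptor, where more surface CFTR restores β-galactosidase activity measured by chemiluminescence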
Details: U2OS cells, 16h compound incubation; for EC50: EC50, F508del-CFTR cell surface expression, geomean of several measurements; for Emax: U2OS, in relation to the Emax of the corrector lumacaftor (=100%), arithmetic mean

Chain of human F508del-CFTR (P13569 with tags, fused parts or gaps DEL508-508): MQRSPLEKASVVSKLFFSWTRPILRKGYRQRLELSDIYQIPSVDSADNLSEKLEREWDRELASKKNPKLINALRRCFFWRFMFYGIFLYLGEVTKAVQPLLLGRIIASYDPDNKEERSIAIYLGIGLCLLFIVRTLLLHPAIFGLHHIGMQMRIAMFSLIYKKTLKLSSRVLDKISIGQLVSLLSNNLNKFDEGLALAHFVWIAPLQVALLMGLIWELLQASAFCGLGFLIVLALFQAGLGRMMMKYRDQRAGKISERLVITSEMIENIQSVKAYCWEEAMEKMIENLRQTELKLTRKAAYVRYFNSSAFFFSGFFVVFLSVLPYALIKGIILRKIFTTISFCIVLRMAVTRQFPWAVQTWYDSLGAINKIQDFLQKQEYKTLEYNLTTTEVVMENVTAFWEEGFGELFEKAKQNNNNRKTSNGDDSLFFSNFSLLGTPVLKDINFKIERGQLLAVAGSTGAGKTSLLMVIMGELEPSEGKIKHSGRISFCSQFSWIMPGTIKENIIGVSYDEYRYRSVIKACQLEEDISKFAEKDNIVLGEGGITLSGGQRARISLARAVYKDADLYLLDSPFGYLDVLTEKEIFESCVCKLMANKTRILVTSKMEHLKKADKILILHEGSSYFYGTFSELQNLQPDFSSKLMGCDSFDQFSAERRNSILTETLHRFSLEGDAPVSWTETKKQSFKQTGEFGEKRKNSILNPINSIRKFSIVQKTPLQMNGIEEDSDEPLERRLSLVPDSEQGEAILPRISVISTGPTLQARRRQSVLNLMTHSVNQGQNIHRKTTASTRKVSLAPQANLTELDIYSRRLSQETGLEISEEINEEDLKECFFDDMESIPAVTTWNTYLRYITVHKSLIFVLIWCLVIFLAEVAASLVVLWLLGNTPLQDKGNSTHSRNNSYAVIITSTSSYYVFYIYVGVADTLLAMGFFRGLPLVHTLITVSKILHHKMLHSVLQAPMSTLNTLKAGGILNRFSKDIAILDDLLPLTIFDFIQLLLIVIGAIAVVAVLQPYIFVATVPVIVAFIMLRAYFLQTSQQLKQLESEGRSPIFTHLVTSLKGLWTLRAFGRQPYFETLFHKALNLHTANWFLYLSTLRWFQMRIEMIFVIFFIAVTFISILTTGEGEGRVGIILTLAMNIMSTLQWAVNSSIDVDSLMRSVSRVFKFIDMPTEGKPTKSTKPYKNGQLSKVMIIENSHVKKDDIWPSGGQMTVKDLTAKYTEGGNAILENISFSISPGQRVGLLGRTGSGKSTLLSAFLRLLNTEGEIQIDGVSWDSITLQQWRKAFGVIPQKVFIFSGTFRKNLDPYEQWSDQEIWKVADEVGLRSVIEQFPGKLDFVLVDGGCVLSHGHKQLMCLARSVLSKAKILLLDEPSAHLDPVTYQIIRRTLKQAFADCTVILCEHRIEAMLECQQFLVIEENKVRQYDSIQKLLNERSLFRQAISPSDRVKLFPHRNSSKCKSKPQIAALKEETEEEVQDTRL

Row | SMILES | EC50 | Emax
1 | COc1noc(CCNC(=O)[C@@H]2CC(=O)N(C)[C@@H](CC(C)C)C(=O)N(C)C3(CC(F)(F)C3)C(=O)N[C@H](Cc3ccccc3)COc3ccc4ncc(F)cc4c3C(=O)N2)c1F [Example 969, (3′S,7′S,13′R)-13′-benzyl-3,3,20′-trifluoro-N-(2-(4-fluoro-3-methoxyisoxazol-5-yl)ethyl)-7′-isobutyl-6′,9′-dimethyl-1′,5′,8′,11′-tetraoxo-2′,3′,4′,5′,6′,7′,8′,9′,11′,12′,13′,14′-dodecahydro-1′H-spiro[cyclobutane-1,10′-[1]oxa[4,7,10,14]tetraazacycloheptadecino[16,17-f]quinoline]-3′-carboxamide] | 0.142 µM | 452%
2 | COc1noc(CCNC(=O)[C@@H]2CC(=O)N(C)[C@@H](CC(C)C)C(=O)N(C)[C@H](CC(F)F)C(=O)N[C@H](Cc3ccccc3)COc3ccc4cnc(C)cc4c3C(=O)N2)c1F [Example 970, (3S,7S,10R,13R)-13-benzyl-10-(2,2-difluoroethyl)-N-(2-(4-fluoro-3-methoxyisoxazol-5-yl)ethyl)-7-isobutyl-6,9,20-trimethyl-1,5,8,11-tetraoxo-1,2,3,4,5,6,7,8,9,10,11,12,13,14-tetradecahydro-[1]oxa[4,7,10,14]tetraazacycloheptadecino[16,17-f]isoquinoline-3-carboxamide] | 0.109 µM | 463%
3 | COc1noc(CCNC(=O)[C@@H]2CC(=O)N(C)[C@@H](CC(C)C)C(=O)N(C)[C@H](Cc3noc(C(C)(C)C)n3)C(=O)N[C@H](Cc3ccccc3)COc3ccc4ncc(F)cc4c3C(=O)N2)n1 [Example 971, (3S,7S,10R,13R)-13-benzyl-10-((5-(tert-butyl)-1,2,4-oxadiazol-3-yl)methyl)-20-fluoro-7-isobutyl-N-(2-(3-methoxy-1,2,4-oxadiazol-5-yl)ethyl)-6,9-dimethyl-1,5,8,11-tetraoxo-1,2,3,4,5,6,7,8,9,10,11,12,13,14-tetradecahydro-[1]oxa[4,7,10,14]tetraazacycloheptadecino[16,17-f]quinoline-3-carboxamide] | 0.163 µM | 482%
4 | COc1cc(CCNC(=O)[C@@H]2CC(=O)N(C)[C@@H](CC(C)C)C(=O)N(C)[C@H](Cc3noc(C(C)(C)C)n3)C(=O)N[C@H](Cc3ccccc3)COc3ccc4ncc(F)cc4c3C(=O)N2)on1 [Example 972, (3S,7S,10R,13R)-13-benzyl-10-((5-(tert-butyl)-1,2,4-oxadiazol-3-yl)methyl)-20-fluoro-7-isobutyl-N-(2-(3-methoxyisoxazol-5-yl)ethyl)-6,9-dimethyl-1,5,8,11-tetraoxo-1,2,3,4,5,6,7,8,9,10,11,12,13,14-tetradecahydro-[1]oxa[4,7,10,14]tetraazacycloheptadecino[16,17-f]quinoline-3-carboxamide] | 0.128 µM | 436%
5 | COc1noc(CCNC(=O)[C@@H]2CC(=O)N(C)[C@@H](CC(C)C)C(=O)N3CCCC[C@@H]3C(=O)N[C@H](Cc3ccccc3)COc3ccc4ncc(F)cc4c3C(=O)N2)c1F [Example 973, (9S,13S,19aR,22R)-22-benzyl-5-fluoro-N-(2-(4-fluoro-3-methoxyisoxazol-5-yl)ethyl)-13-isobutyl-12-methyl-7,11,14,20-tetraoxo-7,8,9,10,11,12,13,14,17,18,19,19a,20,21,22,23-hexadecahydro-16H-pyrido[2′,1′:6,7][1]oxa[4,7,10,14]tetraazacycloheptadecino[16,17-f]quinoline-9-carboxamide] | 0.117 µM | 446%
6 | COc1noc(CCNC(=O)[C@@H]2CC(=O)N(C)[C@@H](CC(C)C)C(=O)N(C)[C@H](CC(F)(F)F)C(=O)N[C@H](Cc3ccccc3)COc3cc(C)c4ncccc4c3C(=O)N2)n1 [Example 975, (3S,7S,10R,13R)-13-benzyl-7-isobutyl-N-(2-(3-methoxy-1,2,4-oxadiazol-5-yl)ethyl)-6,9,17-trimethyl-1,5,8,11-tetraoxo-10-(2,2,2-trifluoroethyl)-1,2,3,4,5,6,7,8,9,10,11,12,13,14-tetradecahydro-[1]oxa[4,7,10,14]tetraazacycloheptadecino[16,17-f]quinoline-3-carboxamide] | 0.119 µM | 497%
7 | CCOCC[C@@H]1C(=O)N[C@H](Cc2ccccc2)COc2ccc3ncc(F)cc3c2C(=O)N[C@H](C(=O)NCCc2nc(C3CC3)no2)CC(=O)N(C)[C@@H](CC(C)C)C(=O)N1C [Example 976, (3S,7S,10R,13R)-13-Benzyl-N-(2-(3-cyclopropyl-1,2,4-oxadiazol-5-yl)ethyl)-10-(2-ethoxyethyl)-20-fluoro-7-isobutyl-6,9-dimethyl-1,5,8,11-tetraoxo-1,2,3,4,5,6,7,8,9,10,11,12,13,14-tetradecahydro-[1]oxa[4,7,10,14]tetraazacycloheptadecino[16,17-f]quinoline-3-carboxamide] | 0.179 µM | 348%
8 | COc1cc(OCC[C@@H]2C(=O)N[C@H](Cc3ccccc3)COc3cc(C)nc(OC)c3C(=O)N[C@H](C(=O)NCCc3cc(OC)no3)CC(=O)N(C)[C@@H](CC(C)C)C(=O)N2C)ccn1 [Example 978, (3R,6R,9S,13S)-3-benzyl-9-isobutyl-16-methoxy-N-(2-(3-methoxyisoxazol-5-yl)ethyl)-6-(2-((2-methoxypyridin-4-yl)oxy)ethyl)-7,10,18-trimethyl-5,8,11,15-tetraoxo-2,3,4,5,6,7,8,9,10,11,12,13,14,15-tetradecahydropyrido[3,4-p][1]oxa[4,7,10,14]tetraazacycloheptadecine-13-carboxamide] | 0.129 µM | 457%
9 | COc1cc(CCNC(=O)[C@@H]2CC(=O)N(C)[C@@H](CC(C)C)C(=O)N(C)[C@H](CC3CC3)C(=O)N[C@H](Cc3ccccc3)COc3cc(C)nc(OC)c3C(=O)N2)on1 [Example 979, (3R,6R,9S,13S)-3-benzyl-6-(cyclopropylmethyl)-9-isobutyl-16-methoxy-N-(2-(3-methoxyisoxazol-5-yl)ethyl)-7,10,18-trimethyl-5,8,11,15-tetraoxo-2,3,4,5,6,7,8,9,10,11,12,13,14,15-tetradecahydropyrido[3,4-p][1]oxa[4,7,10,14]tetraazacycloheptadecine-13-carboxamide] | 0.209 µM | 394%

Continued by falling EC50, values first:

Row | EC50 | Emax | SMILES
10 | 0.281 µM | 410% | COc1cc(CCNC(=O)[C@@H]2CC(=O)N(C)[C@@H](CC(C)C)C(=O)N(C)[C@H](CCOc3cnc(C)cn3)C(=O)N[C@H](Cc3ccccc3)COc3cc(C)nc(OC)c3C(=O)N2)on1 [Example 977, (3R,6R,9S,13S)-3-benzyl-9-isobutyl-16-methoxy-N-(2-(3-methoxyisoxazol-5-yl)ethyl)-7,10,18-trimethyl-6-(2-((5-methylpyrazin-2-yl)oxy)ethyl)-5,8,11,15-tetraoxo-2,3,4,5,6,7,8,9,10,11,12,13,14,15-tetradecahydropyrido[3,4-p][1]oxa[4,7,10,14]tetraazacycloheptadecine-13-carboxamide]
11 | 0.226 µM | 478% | COc1noc(CCNC(=O)[C@@H]2CC(=O)N(C)[C@@H](CC(C)C)C(=O)N(C)[C@H](CC(F)F)C(=O)N[C@H](Cc3ccccc3)COc3cc(C)nc(OC)c3C(=O)N2)c1F [Example 968, (3R,6R,9S,13S)-3-benzyl-6-(2,2-difluoroethyl)-N-(2-(4-fluoro-3-methoxyisoxazol-5-yl)ethyl)-9-isobutyl-16-methoxy-7,10,18-trimethyl-5,8,11,15-tetraoxo-2,3,4,5,6,7,8,9,10,11,12,13,14,15-tetradecahydropyrido[3,4-p][1]oxa[4,7,10,14]tetraazacycloheptadecine-13-carboxamide]
12 | 0.092 µM | 472% | COc1noc(CCNC(=O)[C@@H]2CC(=O)N(C)[C@@H](CC(C)C)C(=O)N(C)[C@H](CC(F)F)C(=O)N[C@H](Cc3ccccc3)COc3ccc4ncc(F)cc4c3C(=O)N2)c1F [Example 967, (3S,7S,10R,13R)-13-benzyl-10-(2,2-difluoroethyl)-20-fluoro-N-(2-(4-fluoro-3-methoxyisoxazol-5-yl)ethyl)-7-isobutyl-6,9-dimethyl-1,5,8,11-tetraoxo-1,2,3,4,5,6,7,8,9,10,11,12,13,14-tetradecahydro-[1]oxa[4,7,10,14]tetraazacycloheptadecino[16,17-f]quinoline-3-carboxamide]
13 | 0.082 µM | 404% | CC(C)C[C@H]1C(=O)N(C)[C@H](Cc2nc(C(F)(F)F)no2)C(=O)N[C@H](Cc2ccccc2)COc2ccc3ncc(F)cc3c2C(=O)N[C@H](C(=O)NC[C@@H](O)c2nc(C3CC3)no2)CC(=O)N1C [Example 966, (3S,7S,10R,13R)-13-benzyl-N-((R)-2-(3-cyclopropyl-1,2,4-oxadiazol-5-yl)-2-hydroxyethyl)-20-fluoro-7-isobutyl-6,9-dimethyl-1,5,8,11-tetraoxo-10-((3-(trifluoromethyl)-1,2,4-oxadiazol-5-yl)methyl)-1,2,3,4,5,6,7,8,9,10,11,12,13,14-tetradecahydro-[1]oxa[4,7,10,14]tetraazacycloheptadecino[16,17-f]quinoline-3-carboxamide]
14 | 0.053 µM | 435% | COc1cc(CCNC(=O)[C@@H]2CC(=O)N(C)[C@@H](CC(C)C)C(=O)N(C)[C@H](CC3CCC3)C(=O)N[C@H](Cc3ccccc3)COc3cc(C)nc(OC)c3C(=O)N2)on1 [Example 980, (3R,6R,9S,13S)-3-benzyl-6-(cyclobutylmethyl)-9-isobutyl-16-methoxy-N-(2-(3-methoxyisoxazol-5-yl)ethyl)-7,10,18-trimethyl-5,8,11,15-tetraoxo-2,3,4,5,6,7,8,9,10,11,12,13,14,15-tetradecahydropyrido[3,4-p][1]oxa[4,7,10,14]tetraazacycloheptadecine-13-carboxamide]
